Literature values, collected in patent publication EP2484728B1, “Ink composition, ink set, and image forming method” (Fujifilm Corporation, priority 2011, dated 2012).

Conditions: 25°C; Polymer Handbook values, otherwise calculated by the Fedors method

Row | SP value | Molecule
1 | 24.1 (MPa)^1/2 | CCCCC(O)CO (centres unmarked) [1,2-Hexanediol]
2 | 21.5 (MPa)^1/2 | CCCCOCCOCCO [Diethylene glycol monobutyl ether]
3 | 21.3 (MPa)^1/2 | COC(C)COC(C)CO (centres unmarked) [Dipropylene glycol monomethyl ether]
4 | 21.2 (MPa)^1/2 | CC(O)COC(C)COC(C)COC(C)COC(C)COC(C)COC(C)CO (centres unmarked) [Heptapropylene glycol]
5 | 22.3 (MPa)^1/2 | CCOCC(C)O (centres unmarked) [Propylene glycol monoethyl ether]
6 | 21.1 (MPa)^1/2 | CCCCOCCOCCOCCO [Triethylene glycol monobutyl ether]
7 | 21.7 (MPa)^1/2 | CCOCCOCCOCCO [Triethylene glycol monoethyl ether]
8 | 22.1 (MPa)^1/2 | COCCOCCOCCO [Triethylene glycol monomethyl ether]
9 | 20.4 (MPa)^1/2 | COC(C)COC(C)COC(C)CO (centres unmarked) [Tripropylene glycol monomethyl ether]
10 | 24.7 (MPa)^1/2 | CC(O)COC(C)COC(C)CO (centres unmarked) [Tripropylene glycol]
11 | glycerin (33.5) (MPa)^1/2 | OCC(O)CO [glycerin]
12 | 18.8 (MPa)^1/2 | Decaoxyethylene heptaoxypropylene butyl ether
13 | 18.7 (MPa)^1/2 | Decaoxyethylene triacontaoxypropylene butyl ether
14 | 20.1 (MPa)^1/2 | Dioxyethylene dioxypropylene butyl ether
15 | 18.8 (MPa)^1/2 | Dodecaoxyethylene dodecaoxypropylene butyl ether
16 | 22.4 (MPa)^1/2 | POE (20) diglyceryl ether
17 | 21.0 (MPa)^1/2 | POE (40) diglyceryl ether
18 | 26. 4 (MPa)^1/2 | POP (3) glycerylether
19 | 26.1 (MPa)^1/2 | POP (4) diglyceryl ether
20 | 24.9 (MPa)^1/2 | POP (4) glyceryl ether
21 | 23.9 (MPa)^1/2 | POP (5) glyceryl ether
22 | 23. 2 (MPa)^1/2 | POP (6) glyceryl ether
23 | 22.6 (MPa)^1/2 | POP (7) glyceryl ether
24 | 22.1 (MPa)^1/2 | POP (8) glyceryl ether
25 | 22.7 (MPa)^1/2 | POP (9) diglyceryl ether
26 | 21.7 (MPa)^1/2 | POP (9) glyceryl ether
27 | 21.4 (MPa)^1/2 | POP (10) glyceryl ether
28 | 20.2 (MPa)^1/2 | POP (16) glyceryl ether
29 | 18.8 (MPa)^1/2 | Pentacosaoxyethylene triacontaoxypropylene butyl ether
30 | 18.8 (MPa)^1/2 | Pentaoxyethylene pentaoxypropylene butyl ether

Row | Molecule | SP value
31 | OCCOCCO [DEG, Diethylene glycol] | DEG (30.6) (MPa)^1/2
32 | COCCOCCO [Diethylene glycol monomethyl ether] | 22.4 (MPa)^1/2
